The results in this text go back to patent publication US20220117945A1, “ISOXAZOLE CARBOXAMIDE COMPOUNDS AND USES THEREOF” (NOVARTIS AG, priority 2017, published 2022).

The test has as its system Atoh1 expression in mouse cerebellar neural precursor cells. The experiment in a line: Atoh1 induction assay in mouse cerebellar neural precursor cells (NPCs), Atoh1-GFP reporter. Format: cell-based. The settings on record: 10 doses 50 μM to 200 nM, 72 hours treatment, DMSO control = 1, more than 5 considered significant, read-out: fold difference (maximum fold difference of GFP average intensity in cell nuclei over the DMSO control). The protocol: Compounds of the present disclosure were assessed for their ability to increase the Atoh1 expression in mouse cerebellar neural precursor cells. The ability of compounds of the present disclosure to induce new hair cell formation was assessed in ex vivo hair cell induction assay using 6-day-postnatal mouse cochlea explants with hair cell damage.
Atoh1 Induction Assay in Mouse Cerebellar Neural Precursor Cells (NPCs)
Atoh1 induction assay was conducted with in vitro cultured cerebellar neural precursor cells isolated from neonatal transgenic Atoh1-GFP mice. Atoh1 expression is mainly regulated by the enhancer, and the nuclear GFP was driven by the cloned enhancer sequence at 3′ of Atoh1 which had high conservation among mammalians. So Atoh1 induction could be reflected by GFP activation in cerebellar neural precursor cells (Helms et al., Development 2000; 127: 1185-1196; Lumpkin et al., Gene Expression Patterns 2003; 3: 389-395). Postnatal 3 days pups were dissected for cerebellum tissue isolation. The cerebellum tissue was cut into small pieces, and dissociated with 0.05% Trypsin for about 10 minutes at 37° C., and then filtered with a 70 uM cell strainer. The cells were cultured as neuropsheres for the first 2 days in ultra-low attachment dish/well-plate with DMEM/F12+1% N2 &2% B27 with 1% P/S, 20 ng/ml rhFGF2 and 20 ng/ml rhEGF (R&D Systems). Then the spheres were plated to the matrigel (1:30 diluted in DMEM/F12)-coated tissue culture dish for monolayer culture. After 4.5-5.5 days culture in vitro (DIV), cells were dissociated with 0.05% trypsin into single cells, and frozen after cell number calculation.
The cerebellar neural precursor cells (NPCs) were re-thawed from stock and cultured for another 2 days before used for Atoh1 induction assay. On the first day of assay, NPCs were seeded into matrigel-coated 384 well plates (Black view-plate, PE) at 2500 cells/well. After over-night culture, the NPCs were treated with representative compounds of the present disclosure with 1:2 serial dilutions for 10 doses, from 50 μM to 200 nM, with DMSO as negative control. After 72 hours treatment without medium change, the cells were fixed with 4% formalin for staining. Assay plates were stained with GFP antibody (Abcam, #13970, 1:1000) to amplify endogenous GFP signal and then read by Cellomics.

SMILES strings stand for the structures.

In the case of `O=C(NCCCCCN1CCC(F)(F)CC1)c1cc(-c2cccs2)on1` [Example 31], the maximal fold induction worked out at 16.
Take `O=C(NCCCCCN1CCC(F)C1)c1cc(-c2cccs2)on1` (stereo not drawn) [Example 32]: the maximal fold induction is 26.8.
For `O=C(NCCCCCN1CC(C(=O)NCCCO)C1)c1cc(-c2cccs2)on1` [Example 81, N-(5-(3-((3-Hydroxypropyl)carbamoyl)azetidin-1-yl)pentyl)-5-(thiophen-2-yl)isoxazole-3-carboxamide] the value was 33.
The result for `O=C1CN(CCCCCNC(=O)c2cc(-c3cccs3)on2)CCN1` [Example 37] reads 13.5; that for `CC(=O)N1CCN(CCCCCNC(=O)c2cc(-c3ccc(F)cc3)on2)CC1` [Example 30], 13.4.
For `COC1CN(CCCCCNC(=O)c2cc(-c3ccc(F)cc3)on2)C1` [Example 68], the maximal fold induction was 22.3.
The result for `O=C(NCCCCCN1CC2(COC2)C1)c1cc(-c2cccs2)on1` [Example 34] reads 20.8.
For `CNC(=O)NC1CN(CCCCCNC(=O)c2cc(-c3cccs3)on2)C1` [Example 18, N-(5-(3-(3-Methylureido)azetidin-1-yl)pentyl)-5-(thiophen-2-yl)isoxazole-3-carboxamide] the value was 17.6.
For `O=C(NCCCCCN1CC2(COC2)C1)c1cc(-c2ccc(F)cc2)on1` [Example 69], the maximal fold induction turned out to be 33.5.
As for `N#CCCNC(=O)C1CN(CCCCCNC(=O)c2cc(-c3ccc(F)cc3)on2)C1` [Example 87, N-(5-(3-((2-Cyanoethyl)carbamoyl)azetidin-1-yl)pentyl)-5-(4-fluorophenyl)isoxazole-3-carboxamide], the maximal fold induction came to 27.8.
Take `CC(=O)C1CN(CCCCCNC(=O)c2cc(-c3cccs3)on2)C1` [Example 93, N-(5-(3-Acetylazetidin-1-yl)pentyl)-5-(thiophen-2-yl)isoxazole-3-carboxamide]: the maximal fold induction was determined as 12.4.
For `O=C(NCCCCCN1CC(c2ncc[nH]2)C1)c1cc(-c2ccc(F)cc2)on1` [Example 71], the maximal fold induction turned out to be 26.8.
The result for `N#CCNC(=O)C1CN(CCCCCNC(=O)c2cc(-c3ccc(F)cc3)on2)C1` [Example 88, N-(5-(3-((Cyanomethyl)carbamoyl)azetidin-1-yl)pentyl)-5-(4-fluorophenyl)isoxazole-3-carboxamide] reads 9.3.
The result for `O=C(NCCCCCN1CC(c2ncc[nH]2)C1)c1cc(-c2cccs2)on1` [Example 95, N-(5-(3-(1H-imidazol-2-yl)azetidin-1-yl)pentyl)-5-(thiophen-2-yl)isoxazole-3-carboxamide] reads 21.8.
`O=C(NCCCCCN1CC(C(=O)NCCO)C1)c1cc(-c2cccs2)on1` [Example 78, N-(5-(3-((2-Hydroxyethyl)carbamoyl)azetidin-1-yl)pentyl)-5-(thiophen-2-yl)isoxazole-3-carboxamide]: the maximal fold induction worked out at 23.1.
The result for `CNC(=O)C1CN(CCCCCNC(=O)c2cc(-c3cccs3)on2)C1` [Example 61, N-(5-(3-(methylcarbamoyl)azetidin-1-yl)pentyl)-5-(thiophen-2-yl)isoxazole-3-carboxamide] reads 33.7; that for `NC(=O)C1CN(CCC(F)(F)CCNC(=O)c2cc(-c3ccc(F)cc3)on2)C1` [Example 76, N-(5-(3-Carbamoylazetidin-1-yl)-3,3-difluoropentyl)-5-(4-fluorophenyl)isoxazole-3-carboxamide], 20.4.
For the compound `N#CC1CN(CCCCCNC(=O)c2cc(-c3cccs3)on2)C1` [Example 35], the maximal fold induction turned out to be 29.7.
For `O=C(NCCCCCN1CCC(O)CC1)c1cc(-c2cccs2)on1` [Example 39] the value was 20.5.
The result for `CC(=O)NC1CN(CCCCCNC(=O)c2cc(-c3cccs3)on2)C1` [Example 16, N-(5-(3-Acetamidoazetidin-1-yl)pentyl)-5-(thiophen-2-yl)isoxazole-3-carboxamide] reads 25.3; that for `O=C(NCCCCCN1CC(C(=O)N[C@H]2C[C@@H](O)C2)C1)c1cc(-c2cccs2)on1` [Example 79, N-(5-(3-(((1,3-cis)-3-Hydroxycyclobutyl)carbamoyl)azetidin-1-yl)pentyl)-5-(thiophen-2-yl)isoxazole-3-carboxamide], 26.6; that for `CS(=O)(=O)NC1CN(CCCCCNC(=O)c2cc(-c3cccs3)on2)C1` [Example 19, N-(5-(3-(Methylsulfonamido)azetidin-1-yl)pentyl)-5-(thiophen-2-yl)isoxazole-3-carboxamide], 31.7.
The result for `CNC(=O)NC1CN(CCCCCNC(=O)c2cc(-c3ccc(F)cc3)on2)C1` [Example 23, 5-(4-Fluorophenyl)-N-(5-(3-(3-methylureido)azetidin-1-yl)pentyl)isoxazole-3-carboxamide] reads 25.7; that for `O=C(NCCCCCN1CC(F)C1)c1cc(-c2ccc(F)cc2)on1` [Example 44], 34.7; that for `O=C(NCCCCCN1CC2CC1CN2)c1cc(-c2cccs2)on1` (stereo not drawn) [Example 4, N-(5-(2,5-Diazabicyclo[2.2.1]heptan-2-yl)pentyl)-5-(thiophen-2-yl)isoxazole-3-carboxamide], 30.7.
Regarding `O=C(NCCCCCN1CC(C(=O)NC2CCCC2O)C1)c1cc(-c2cccs2)on1` (stereo not drawn) [Example 83, N-(5-(3-((2-Hydroxycyclopentyl)carbamoyl)azetidin-1-yl)pentyl)-5-(thiophen-2-yl)isoxazole-3-carboxamide], the maximal fold induction came out at 34.4.
For `N#CCCNC(=O)C1CN(CCCCCNC(=O)c2cc(-c3cccs3)on2)C1` [Example 84, N-(5-(3-((2-Cyanoethyl)carbamoyl)azetidin-1-yl)pentyl)-5-(thiophen-2-yl)isoxazole-3-carboxamide] the value was 35.1; for `O=C(NCCCCCN1CC(C(=O)NCCO)C1)c1cc(-c2ccc(F)cc2)on1` [Example 90, 5-(4-Fluorophenyl)-N-(5-(3-((2-hydroxyethyl)carbamoyl)azetidin-1-yl)pentyl)isoxazole-3-carboxamide], 19.1; for `CN(C)C(=O)C1CN(CCCCCNC(=O)c2cc(-c3cccs3)on2)C1` [Example 46], 18.
The result for `CC(C)(C)OC(=O)N1CCN(CCCCCNC(=O)c2cc(-c3cccs3)on2)CC1` [Example 2, tert-Butyl 4-(5-(5-(thiophen-2-yl)isoxazole-3-carboxamido)pentyl)piperazine-1-carboxylate] reads 35.4.
